According to US12358918B2, “Aryl hydrocarbon receptor (AHR) activator compounds as cancer therapeutics” (THE BROAD INSTITUTE, INC., priority 2018, dated 2025):

Columns and labels:
[1] = system: MDA-MB-231 breast cancer cell lines; assay: cytotoxicity, control cells vs cells overexpressing CYP1A1; format: cell-based; details: control MDA-MB-231 compared with cells overexpressing CYP1A1
Excerpt: The dependence of each compound's cytotoxic effects upon CYP1A1 was also examined, via screening of MDA-MB-231 breast cancer cell lines for cytotoxic response. The CYP1A1-dependence of the cytotoxic response of to each tested compound was specifically determined by comparing the cytotoxicity of each compound administered to control cells with that of the compound administered to corresponding cells that overexpressed CYP1A1. […]

[2] = system: MDA-MB-468 and ZR51 breast cancer and JHH7 liver cancer cell lines; assay: 5 day cytotoxicity, control cells vs sgRNA knock out of AHR; details: cytotoxicity in control cells compared with AHR sgRNA knock out cells; FIGS. 23 and 24
[3] = system: ZR75, MDA-MB-468 and HCC1395 cell lines; assay: cytotoxicity of CGS-15943 analogs in sensitive and resistant cell lines; format: cell-based; details: IC50 tables of FIGS. 8A to 8D
Excerpt: Biological replicates were averaged and normalized to vehicle control. Dose curves were generated using Graphpad Prism.

[4] = system: ZR-75-1 breast cancer cells; assay: Synergy/antagonism testing; format: cell-based; details: co-treatment with CGS-15943, 120H; FIG. 14
Procedure: 1000 cells per well were seeded in 384 well clear bottom tissue culture plates and incubated overnight at 37° C. and 4% CO2. The following day, compounds were dispensed in a combination grid format using the Tecan Digital Dispenser. Plates were incubated for 5 days and then viability was assayed using CellTiter-Glo® Cellular Viability Assay. Analysis and Synergy plots were generated using the publicly available Combenefit software package.
AHR has been previously described to bind a range of endogenous and exogenous aromatic ligands (Denison et al. Tox. Sci. 2004, see Table 2), resulting in the formation of a nuclear heterodimer with ARNT. The dimer then binds dioxin-responsive elements and drives gene expression, after nuclear translocation. AHR has been described to bind a wide range of aromatic substrates including agonists, antagonists, and modulators.

Cc1ccc2cc3c(ccc4ccccc43)c3c2c1CC3 [3-Methylcholanthrene, reference compound]
CYP1A1-dependence of the cytotoxic response [1]: CYP1A1-dependent cytotoxic | AHR-dependence of the cytotoxic response [2]: dependence upon AHR

Nc1nc2c(cnn2CCc2ccccc2)c2nc(-c3ccco3)nn12 [BRD-K81225797-001-02-3]
killing of sensitive (ZR75, MDA-MB-468) versus resistant (HCC1395) cell lines [3]: selective killing

COc1ccc(-c2cc(=O)c3cc(OC)ccc3o2)c(OC)c1
interaction with CGS-15943 (3D Synergy plot) [4]: pronounced antagonism to CGS-15943
